For 30 compounds, IC50 results are on record in patent US11208412B2 (DAEGU-GYEONGBUK MEDICAL INNOVATION FOUNDATION, priority 2017, dated 2021).

The target of the assay is T1, recombinant LRRK2 kinase (Homo sapiens, UniProt Q5S007).
T1 construct: purchased Signal Chem, Richmond, BC, Canada
The assay can be described thus: LRRK2 kinase inhibition (Kinase-Glo luminescence). The assay is classed as biochemical. The conditions noted are these: IC50 grade; 25 μmol/L ATP, LRRKtide, 30° C. 2 hours; read-out: Enzyme activity LRRK2. On the procedure: Upon completion of the reaction, an equal amount of Kinase-Glo (Promega, Madison, Wis.) solution was added thereto, followed by reaction for 40 minutes. A detection solution was added thereto, followed by further reaction at room temperature for 30 minutes. Then, IC50 of kinase was calculated by measuring the amount of luciferase using a microplate ELISA reader (Bio-Tek).

T1 sequence (Q5S007 whole entry): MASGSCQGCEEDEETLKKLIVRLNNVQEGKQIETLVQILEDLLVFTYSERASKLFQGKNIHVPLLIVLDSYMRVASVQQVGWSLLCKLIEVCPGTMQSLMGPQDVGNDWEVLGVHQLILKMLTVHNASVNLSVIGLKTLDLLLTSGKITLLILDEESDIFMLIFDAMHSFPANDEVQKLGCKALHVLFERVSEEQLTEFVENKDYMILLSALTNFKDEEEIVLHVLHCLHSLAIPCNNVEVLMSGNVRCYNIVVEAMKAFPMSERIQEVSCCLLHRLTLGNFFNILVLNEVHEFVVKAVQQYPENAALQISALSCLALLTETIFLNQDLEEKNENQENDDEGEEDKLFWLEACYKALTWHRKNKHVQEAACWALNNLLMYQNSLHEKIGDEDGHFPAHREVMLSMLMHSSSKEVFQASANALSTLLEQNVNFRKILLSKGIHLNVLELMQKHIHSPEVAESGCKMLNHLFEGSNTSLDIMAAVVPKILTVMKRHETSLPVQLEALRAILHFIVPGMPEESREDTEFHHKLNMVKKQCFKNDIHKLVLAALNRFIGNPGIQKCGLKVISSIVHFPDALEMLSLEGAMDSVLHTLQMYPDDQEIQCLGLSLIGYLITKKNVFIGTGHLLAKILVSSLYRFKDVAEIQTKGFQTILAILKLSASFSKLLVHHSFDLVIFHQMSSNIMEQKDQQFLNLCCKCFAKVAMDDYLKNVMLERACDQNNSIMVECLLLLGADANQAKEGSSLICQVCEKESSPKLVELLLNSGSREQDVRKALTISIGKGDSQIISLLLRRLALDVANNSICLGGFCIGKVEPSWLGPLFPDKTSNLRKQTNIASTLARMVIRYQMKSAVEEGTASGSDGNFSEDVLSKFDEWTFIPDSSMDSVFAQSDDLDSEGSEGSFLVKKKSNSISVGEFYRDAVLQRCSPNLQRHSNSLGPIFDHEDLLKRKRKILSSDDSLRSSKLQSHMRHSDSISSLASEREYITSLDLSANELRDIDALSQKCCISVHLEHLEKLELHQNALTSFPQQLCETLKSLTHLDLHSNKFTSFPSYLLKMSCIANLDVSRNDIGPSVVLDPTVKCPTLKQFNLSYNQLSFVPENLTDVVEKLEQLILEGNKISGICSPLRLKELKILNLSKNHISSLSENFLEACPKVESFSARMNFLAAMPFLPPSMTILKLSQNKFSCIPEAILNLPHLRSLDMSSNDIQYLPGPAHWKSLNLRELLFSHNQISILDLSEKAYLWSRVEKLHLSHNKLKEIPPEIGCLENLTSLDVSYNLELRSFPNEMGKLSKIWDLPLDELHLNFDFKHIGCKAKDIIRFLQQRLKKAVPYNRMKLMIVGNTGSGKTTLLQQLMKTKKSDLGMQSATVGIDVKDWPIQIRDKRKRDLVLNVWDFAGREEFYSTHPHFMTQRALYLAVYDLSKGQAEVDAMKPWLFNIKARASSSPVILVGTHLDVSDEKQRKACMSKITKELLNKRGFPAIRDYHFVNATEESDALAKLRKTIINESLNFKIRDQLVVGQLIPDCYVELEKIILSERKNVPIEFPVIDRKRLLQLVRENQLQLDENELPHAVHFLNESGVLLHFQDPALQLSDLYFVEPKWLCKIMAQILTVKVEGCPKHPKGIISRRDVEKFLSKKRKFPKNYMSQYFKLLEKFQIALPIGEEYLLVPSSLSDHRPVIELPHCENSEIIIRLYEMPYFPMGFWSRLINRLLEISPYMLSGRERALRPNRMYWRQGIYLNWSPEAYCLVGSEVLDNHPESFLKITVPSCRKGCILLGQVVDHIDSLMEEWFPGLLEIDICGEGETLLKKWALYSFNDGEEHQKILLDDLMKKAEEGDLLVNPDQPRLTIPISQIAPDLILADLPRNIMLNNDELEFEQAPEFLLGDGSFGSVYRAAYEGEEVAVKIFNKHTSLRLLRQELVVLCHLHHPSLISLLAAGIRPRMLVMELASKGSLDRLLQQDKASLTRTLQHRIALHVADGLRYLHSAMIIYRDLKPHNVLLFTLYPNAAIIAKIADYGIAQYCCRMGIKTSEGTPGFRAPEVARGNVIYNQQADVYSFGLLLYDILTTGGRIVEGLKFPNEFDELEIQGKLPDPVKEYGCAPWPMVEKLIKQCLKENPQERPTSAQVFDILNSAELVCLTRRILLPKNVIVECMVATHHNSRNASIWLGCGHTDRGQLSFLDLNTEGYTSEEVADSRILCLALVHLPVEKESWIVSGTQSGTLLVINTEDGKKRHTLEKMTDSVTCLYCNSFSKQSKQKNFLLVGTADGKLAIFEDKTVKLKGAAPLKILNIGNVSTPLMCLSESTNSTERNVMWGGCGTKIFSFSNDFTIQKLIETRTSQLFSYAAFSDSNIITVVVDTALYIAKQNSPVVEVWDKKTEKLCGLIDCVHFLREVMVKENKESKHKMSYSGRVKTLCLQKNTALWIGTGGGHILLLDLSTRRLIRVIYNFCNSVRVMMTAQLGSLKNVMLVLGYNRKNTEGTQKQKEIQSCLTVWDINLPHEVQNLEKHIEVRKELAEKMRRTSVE

Take `CNc1nc(Nc2c(C)nn(C(C)(C)C#N)c2C)nc2[nH]cc(C#N)c12` [Example 77, 2-((1-(2-cyanopropane-2-yl)-3,5-dimethyl-1H-pyrazole-4-yl)amino)-4-(methylamino)-7H-pyrrolo[2,3-d]pyrimidine-5-carbonitrile]: the IC50 is above 100 nM.

Take `CCNc1nc(Nc2ccc(C(=O)N3CCOC(C)C3)cc2OC)nc2[nH]cc(C(F)(F)F)c12` (stereo in doubt) [Example 111, (S)-(4-((4-(ethylamino)-5-(trifluoromethyl)-7H-pyrrolo[2,3-d]pyrimidine-2-yl)amino)-3-methoxyphenyl)(2-methylmorpholino)methanone]: the IC50 lay within 10 to 100 nM.

As for `COc1cc(C(=O)N2CCO[C@H](C)C2)ccc1Nc1nc(NC2(C)CC2)c2c(C#N)c[nH]c2n1` [Example 42, (R)-2-((2-methoxy-4-(2-methylmorpholine-4-carbonyl)phenyl)amino)-4-((1-methylcyclopropyl)amino)-7H-pyrrolo[2,3-d]pyrimidine-5-carbonitrile], the IC50 is below 10 nM.

In the case of `CNc1nc(Nc2cnn(C(C)C)c2C)nc2[nH]cc(C#N)c12` [Example 31, 6-((1-isopropyl-5-methyl-1H-pyrazole-4-yl)amino)-4-(methylamino)-1H-pyrrolo[2,3-b]pyrimidine-3-carbonitrile], the IC50 is below 10 nM.

In the case of `CCNc1nc(Nc2cc(F)c(C(=O)NC3CCN(C(C)C)CC3)cc2OC)nc2[nH]cc(C#N)c12` [Example 68, 4-((5-cyano-4-(ethylamino)-7H-pyrrolo[2,3-d]pyrimidine-2-yl)amino)-2-fluoro-N-(1-isopropylpiperidine-4-yl)-5-methoxybenzamide], the IC50 is below 10 nM.

Consider `CCNc1nc(Nc2cn(C(C)(C)C#N)nc2C)nc2[nH]cc(C(F)(F)F)c12` [Example 103, 2-(4-((4-(ethylamino)-5-(trifluoromethyl)-7H-pyrrolo[2,3-d]pyrimidine-2-yl)amino)-3-methyl-1H-pyrazole-1-yl)-2-methylpropanenitrile], for which the IC50 is below 10 nM.

For `CCNc1nc(Nc2ccc(C(=O)N3CCC(N4CCOCC4)CC3)cc2OC)nc2[nH]cc(C#N)c12` [Example 8, 4-(ethylamino)-2-((2-methoxy-4-(4-morpholinopiperidine-1-carbonyl)phenyl)amino)-7H-pyrrolo[2,3-d]pyrimidine-5-carbonitrile], the IC50 is below 10 nM.

In the case of `CNc1nc(Nc2cnn(CCO)c2)nc2[nH]cc(C#N)c12` [Example 69, 2-((1-(2-hydroxyethyl)-1H-pyrazole-4-yl)amino)-4-(methylamino)-7H-pyrrolo[2,3-d]pyrimidine-5-carbonitrile], the IC50 is below 10 nM.

Turning to `COc1cc(C(=O)N2CCOCC2)c(F)cc1Nc1nc(O[C@H]2CCOC2)c2c(C#N)c[nH]c2n1` [Example 92, (S)-2-((5-fluoro-2-methoxy-4-(morpholine-4-carbonyl)phenyl)amino)-4-((tetrahydrofuran-3-yl)oxy)-7H-pyrrolo[2,3 d]pyrimidine-5-carbonitrile], the IC50 was below 10 nM.

As to `CCNc1nc(Nc2ccc(C(=O)N3C[C@@H](C)O[C@@H](C)C3)cc2OC)nc2[nH]cc(C(F)(F)F)c12` [Example 109], the IC50 was above 100 nM.

Take `CNc1nc(Nc2cnn(C(C)(C)C#N)c2Cl)nc2[nH]cc(C#N)c12` [Example 73, 2-((5-chloro-1-(2-cyanopropane-2-yl)-1H-pyrazole-4-yl)amino)-4-(methylamino)-7H-pyrrolo[2,3-d]pyrimidine-5-carbonitrile]: the IC50 was below 10 nM.

As to `CNc1nc(Nc2cnn(C)c2C)nc2[nH]cc(C#N)c12` [Example 29, 6-((1,5-dimethyl-1H-pyrazole-4-yl)amino)-4-(methylamino)-1H-pyrrolo[2,3-b]pyrimidine-3-carbonitrile], the IC50 was 10 to 100 nM.

In the case of `CNc1nc(Nc2cc(F)c(C(=O)N3CCN(C)C[C@H]3C)cc2OC)nc2[nH]cc(C#N)c12` [Example 80, (R)-2-((4-(2,4-dimethylpiperazine-1-carbonyl)-5-fluoro-2-methoxyphenyl)amino)-4-(methylamino)-7H-pyrrolo[2,3-d]pyrimidine-5-carbonitrile], the IC50 lay within 10 to 100 nM.

Take `CNc1nc(Nc2ccc(C(=O)NC3CCN(C4COC4)CC3)cc2OC)nc2[nH]cc(C#N)c12` [Example 61, 4-((5-cyano-4-(methylamino)-7H-pyrrolo[2,3-d]pyrimidine-2-yl)amino)-3-methoxy-N-(1-(oxetane-3-yl)piperidine-4-yl)benzylamide]: the IC50 was in the range of 10 to 100 nM.

As for `CCNc1nc(Nc2ccc(C(=O)N3CCN(C)CC3)cc2OC)nc2[nH]cc(C(F)(F)F)c12` [Example 107, (4-((4-(ethylamino)-5-(trifluoromethyl)-7H-pyrrolo[2,3-d]pyrimidine-2-yl)amino)-3-methoxyphenyl)(4-methylpiperazine-1-yl)methanone], the IC50 is below 10 nM.

As for `CCNc1nc(Nc2ccc(C(=O)N3CCN(C)C[C@H]3C)cc2OC)nc2[nH]cc(C#N)c12` [Example 76, (R)-2-((4-(2,4-dimethylpiperazine-1-carbonyl)-2-methoxyphenyl)amino)-4-(ethylamino)-7H-pyrrolo[2,3-d]pyrimidine-5-carbonitrile], the IC50 was below 10 nM.

As for `CCNc1nc(Nc2sc(C(C)(C)C#N)nc2C)nc2[nH]cc(C#N)c12` [Example 132, 2-((2-(2-cyanopropane-2-yl)-4-methylthiazole-5-yl)amino)-4-(ethylamino)-7H-pyrrolo[2,3-d]pyrimidine-5-carbonitrile], the IC50 was in the range of 10 to 100 nM.

On to `COc1cc(C(=O)N2CCOCC2)c(F)cc1Nc1nc(NC2CC2)c2c(C#N)c[nH]c2n1` [Example 18, 4-(cyclopropylamino)-2-((5-fluoro-2-methoxy-4-(morpholine-4-carbonyl)phenyl)amino)-7H-pyrrolo[2,3-d]pyrimidine-5-carbonitrile], for which the IC50 lay within 10 to 100 nM.

On to `CNc1nc(Nc2cc(F)c(C(=O)NC3CCN(C(C)C)CC3)cc2OC)nc2[nH]cc(C#N)c12` [Example 67, 4-((5-cyano-4-(methylamino)-7H-pyrrolo[2,3-d]pyrimidine-2-yl)amino)-2-fluoro-N-(1-isopropylpiperidine-4-yl)-5-methoxybenzamide], for which the IC50 was below 10 nM.

Regarding `CNc1nc(Nc2cnn([C@H]3CCN(C4COC4)C[C@@H]3F)c2Cl)nc2[nH]cc(C#N)c12` [Example 50, 2-((5-chloro-1-((3S,4S)-3-fluoro-1-(oxetane-3-yl)piperidine-4-yl)-1H-pyrazole-4-yl)amino)-4-(methylamino)-7H-pyrrolo[2,3-d]pyrimidine-5-carbonitrile], the IC50 is below 10 nM.

With `COc1cc(C(=O)N2CCOCC2)ccc1Nc1nc(NC2(C)CC2)c2c(C#N)c[nH]c2n1` [Example 36, 2-((2-methoxy-4-(morpholine-4-carbonyl)phenyl)amino)-4-((1-methylcyclopropyl)amino)-7H-pyrrolo[2,3-d]pyrimidine-5-carbonitrile], the IC50 was below 10 nM.

Take `COc1cc(C(=O)NC2CCN(C(C)C)CC2)c(F)cc1Nc1nc(NC2(C)CC2)c2c(C#N)c[nH]c2n1` [Example 82, 4-((5-cyano-4-((1-methylcyclopropyl)amino)-7H-pyrrolo[2,3-d]pyrimidine-2-yl)amino)-2-fluoro-N-(1-isopropylpiperidine-4-yl)-5-methoxybenzamide]: the IC50 fell in the range of 10 to 100 nM.

As to `CNc1nc(Nc2cc(F)c(C(=O)NC3CCN(C4COC4)CC3)cc2OC)nc2[nH]cc(C#N)c12` [Example 63, 4-((5-cyano-4-(methylamino)-7H-pyrrolo[2,3-d]pyrimidine-2-yl)amino)-2-fluoro-5-methoxy-N-(1-(oxetane-3-pyrrolidine-1-yl)piperidine-4-yl)benzamide], the IC50 is below 10 nM.

As to `CNc1nc(Nc2ccc(C(=O)NC3CCN(C)CC3)cc2OC)nc2[nH]cc(C#N)c12` [Example 55, 4-((5-cyano-4-(methylamino)-7H-pyrrolo[2,3-d]pyrimidine-2-yl)amino)-3-methoxy-N-(1-methylpiperidine-4-yl)benzamide], the IC50 is below 10 nM.

Regarding `COc1cc(C(=O)N2CCO[C@H](C)C2)ccc1Nc1nc(OC2(C)CC2)c2c(C#N)c[nH]c2n1` [Example 98, (R)-2-((2-methoxy-4-(2-methylmorpholine-4-carbonyl)phenyl)amino)-4-(1-methylcyclopropoxy)-7H-pyrrolo[2,3d]carbonitrile], the IC50 is 10 to 100 nM.

For `CCNc1nc(Nc2ccn(C)n2)nc2[nH]cc(C#N)c12` [Example 5, 4-(ethylamino)-2-((1-methyl-1H-pyrazole-3-yl)amino)-7H-pyrrolo[2,3-d]pyrimidine-5-carbonitrile], the IC50 was below 10 nM.

On to `Cc1nn(C(C)(C)C#N)cc1Nc1nc(OC2(C)CC2)c2c(C#N)c[nH]c2n1` [Example 94, 2-((1-(2-cyanopropane-2-yl)-3-methyl-1H-pyrazole-4-yl)amino)-4-(1-methylcyclopropoxy)-7H-pyrrolo[2,3-d]pyrimidine-5-carbonitrile], for which the IC50 was below 10 nM.

Consider `Cc1c(Nc2nc(NC3(C)CC3)c3c(C#N)c[nH]c3n2)cnn1C` [Example 41, 2-((1,5-dimethyl-1H-pyrazole-4-yl)amino)-4-((1-methylcyclopropyl)amino)-7H-pyrrolo[2,3-d]pyrimidine-5-carbonitrile], for which the IC50 was below 10 nM.

Consider `Cc1nn(C(C)(C)C#N)cc1Nc1nc(NC2(C)CC2)c2c(C#N)c[nH]c2n1` [Example 49, 2-((1-(2-cyanopropane-2-yl)-3-methyl-1H-pyrazole-4-yl)amino)-4-((1-methylcyclopropyl)amino)-7H-pyrrolo[2,3-d]pyrimidine-5-carbonitrile], for which the IC50 was below 10 nM.

For the compound `CC1(Nc2nc(Nc3cnn([C@H]4CCN(C5COC5)C[C@@H]4F)c3)nc3[nH]cc(C#N)c23)CC1` [Example 54, 2-((1-((3S,4S)-3-fluoro-1-(oxetane-3-yl)piperidine-4-yl)-1H-pyrazole-4-yl)amino)-4-((methylcyclopropyl)amino)-7H-pyrrolo[2,3-d]pyrimidine-5-carbonitrile], the IC50 was below 10 nM.
